From ChEMBL document CHEMBL3885881, “DrugMatrix”

Species: Rattus norvegicus
Experiment: DrugMatrix - Regimen: Daily Repeat
Type: toxicity, organism-based, Sprague-Dawley
Set-up: regimen Daily Repeat, gender Male, age 6-8 weeks
Details: in vivo, iv, vehicle 100 % SALINE; for ABSOLUTE BASOPHIL / ABSOLUTE EOSINOPHIL / ABSOLUTE LYMPHOCYTE / ABSOLUTE MONOCYTE / ABSOLUTE SEGMENTED NEUTROPHIL / BASOPHIL / EOSINOPHIL / ERYTHROCYTE COUNT / HEMATOCRIT / HEMOGLOBIN / LEUKOCYTE COUNT / LYMPHOCYTE / MEAN CORPUSCULAR HEMOGLOBIN / MEAN CORPUSCULAR HEMOGLOBIN CONCENTRATION / MEAN CORPUSCULAR VOLUME / MONOCYTE / NEUTROPHIL / NUCLEATED RED BLOOD CELLS / PLATELET COUNT: tissue Blood; for ALANINE AMINOTRANSFERASE / ALBUMIN / ALKALINE PHOSPHATASE / ASPARTATE AMINOTRANSFERASE / BLOOD UREA NITROGEN / CARBON DIOXIDE / CHLORIDE / CHOLESTEROL / CREATINE PHOSPHOKINASE / CREATININE / GLUCOSE / LACTATE DEHYDROGENASE / LIPASE / PHOSPHORUS / POTASSIUM / SODIUM / TOTAL BILIRUBIN / TOTAL PROTEIN / URIC ACID: tissue Plasma
[1] = 33 mg/kg, 72 h, dose level Low, time 3 day
[2] = 33 mg/kg, 120 h, dose level Low, time 5 day
[3] = 1000 mg/kg, 72 h, dose level High, time 3 day
[4] = 1000 mg/kg, 120 h, dose level High, time 5 day

Compound: CO/N=C(\C(=O)N[C@@H]1C(=O)N2C(C(=O)O)=C(COC(C)=O)CS[C@H]12)c1csc(N)n1 [CEFOTAXIME]
- ABSOLUTE BASOPHIL [1]: 0 CELLS/uL
- ABSOLUTE EOSINOPHIL [1]: 0 CELLS/uL
- ABSOLUTE LYMPHOCYTE [1]: 11282.67 CELLS/uL
- ABSOLUTE MONOCYTE [1]: 120 CELLS/uL
- ABSOLUTE SEGMENTED NEUTROPHIL [1]: 730.67 CELLS/uL
- BASOPHIL [1]: 0%
- EOSINOPHIL [1]: 0%
- ERYTHROCYTE COUNT [1]: 5.79 x10E6/uL
- HEMATOCRIT [1]: 35.7%
- HEMOGLOBIN [1]: 13.43 G/DL
- LEUKOCYTE COUNT [1]: 12.13 x10E3/uL
- LYMPHOCYTE [1]: 93%
- MEAN CORPUSCULAR HEMOGLOBIN [1]: 23.2 pg
- MEAN CORPUSCULAR HEMOGLOBIN CONCENTRATION [1]: 37.63 G/DL
- MEAN CORPUSCULAR VOLUME [1]: 61.63 fL
- MONOCYTE [1]: 0.67%
- NEUTROPHIL [1]: 6.33%
- NUCLEATED RED BLOOD CELLS [1]: 0 /100WBC
- PLATELET COUNT [1]: 1231.67 x10E3/uL
- ALANINE AMINOTRANSFERASE [1]: 55 u/L
- ALBUMIN [1]: 4.17 G/DL
- ALKALINE PHOSPHATASE [1]: 343 u/L
- ASPARTATE AMINOTRANSFERASE [1]: 90.67 u/L
- BLOOD UREA NITROGEN [1]: 15.67 mg/dL
- CARBON DIOXIDE [1]: 25.67 mmol/L
- CHLORIDE [1]: 103.33 MEQ/L
- CHOLESTEROL [1]: 73.67 mg/dL
- CREATINE PHOSPHOKINASE [1]: 330.67 u/L
- CREATININE [1]: 0.38 mg/dL
- GLUCOSE [1]: 167.33 mg/dL
- LACTATE DEHYDROGENASE [1]: 139.33 u/L
- LIPASE [1]: 12 u/L
- PHOSPHORUS [1]: 14.17 mg/dL
- POTASSIUM [1]: 7.29 MEQ/L
- SODIUM [1]: 146.03 MEQ/L
- TOTAL BILIRUBIN [1]: 0.17 mg/dL
- TOTAL PROTEIN [1]: 5.8 G/DL
- URIC ACID [1]: 2.07 mg/dL
- ABSOLUTE BASOPHIL [2]: 0 CELLS/uL
- ABSOLUTE EOSINOPHIL [2]: 0 CELLS/uL
- ABSOLUTE LYMPHOCYTE [2]: 11544.67 CELLS/uL
- ABSOLUTE MONOCYTE [2]: 213 CELLS/uL
- ABSOLUTE SEGMENTED NEUTROPHIL [2]: 1075.67 CELLS/uL
- BASOPHIL [2]: 0%
- EOSINOPHIL [2]: 0%
- ERYTHROCYTE COUNT [2]: 5.16 x10E6/uL
- HEMATOCRIT [2]: 32.83%
- HEMOGLOBIN [2]: 12.33 G/DL
- LEUKOCYTE COUNT [2]: 12.83 x10E3/uL
- LYMPHOCYTE [2]: 90%
- MEAN CORPUSCULAR HEMOGLOBIN [2]: 23.93 pg
- MEAN CORPUSCULAR HEMOGLOBIN CONCENTRATION [2]: 37.77 G/DL
- MEAN CORPUSCULAR VOLUME [2]: 63.47 fL
- MONOCYTE [2]: 1.67%
- NEUTROPHIL [2]: 8.33%
- NUCLEATED RED BLOOD CELLS [2]: 0 /100WBC
- PLATELET COUNT [2]: 1107.67 x10E3/uL
- ALANINE AMINOTRANSFERASE [2]: 62.33 u/L
- ALBUMIN [2]: 4.3 G/DL
- ALKALINE PHOSPHATASE [2]: 354.67 u/L
- ASPARTATE AMINOTRANSFERASE [2]: 90.33 u/L
- BLOOD UREA NITROGEN [2]: 17.67 mg/dL
- CARBON DIOXIDE [2]: 23 mmol/L
- CHLORIDE [2]: 104.67 MEQ/L
- CHOLESTEROL [2]: 70.33 mg/dL
- CREATINE PHOSPHOKINASE [2]: 349.67 u/L
- CREATININE [2]: 0.49 mg/dL
- GLUCOSE [2]: 153 mg/dL
- LACTATE DEHYDROGENASE [2]: 186 u/L
- LIPASE [2]: 11 u/L
- PHOSPHORUS [2]: 11.7 mg/dL
- POTASSIUM [2]: 6.42 MEQ/L
- SODIUM [2]: 146.17 MEQ/L
- TOTAL BILIRUBIN [2]: 0.2 mg/dL
- TOTAL PROTEIN [2]: 6.03 G/DL
- URIC ACID [2]: 1.63 mg/dL
- ABSOLUTE BASOPHIL [3]: 0 CELLS/uL
- ABSOLUTE EOSINOPHIL [3]: 92 CELLS/uL
- ABSOLUTE LYMPHOCYTE [3]: 10640.67 CELLS/uL
- ABSOLUTE MONOCYTE [3]: 57.67 CELLS/uL
- ABSOLUTE SEGMENTED NEUTROPHIL [3]: 1309.67 CELLS/uL
- BASOPHIL [3]: 0%
- EOSINOPHIL [3]: 0.67%
- ERYTHROCYTE COUNT [3]: 5.89 x10E6/uL
- HEMATOCRIT [3]: 38.83%
- HEMOGLOBIN [3]: 13.87 G/DL
- LEUKOCYTE COUNT [3]: 12.1 x10E3/uL
- LYMPHOCYTE [3]: 88%
- MEAN CORPUSCULAR HEMOGLOBIN [3]: 23.53 pg
- MEAN CORPUSCULAR HEMOGLOBIN CONCENTRATION [3]: 35.73 G/DL
- MEAN CORPUSCULAR VOLUME [3]: 65.93 fL
- MONOCYTE [3]: 0.33%
- NEUTROPHIL [3]: 11%
- NUCLEATED RED BLOOD CELLS [3]: 0.33 /100WBC
- PLATELET COUNT [3]: 1356.67 x10E3/uL
- ALANINE AMINOTRANSFERASE [3]: 52.33 u/L
- ALBUMIN [3]: 4.4 G/DL
- ALKALINE PHOSPHATASE [3]: 407.67 u/L
- ASPARTATE AMINOTRANSFERASE [3]: 70.33 u/L
- BLOOD UREA NITROGEN [3]: 16.67 mg/dL
- CARBON DIOXIDE [3]: 29.33 mmol/L
- CHLORIDE [3]: 102.33 MEQ/L
- CHOLESTEROL [3]: 85.33 mg/dL
- CREATINE PHOSPHOKINASE [3]: 225 u/L
- CREATININE [3]: 0.27 mg/dL
- GLUCOSE [3]: 150 mg/dL
- LACTATE DEHYDROGENASE [3]: 77 u/L
- LIPASE [3]: 9.67 u/L
- PHOSPHORUS [3]: 11.8 mg/dL
- POTASSIUM [3]: 6.59 MEQ/L
- SODIUM [3]: 146.77 MEQ/L
- TOTAL BILIRUBIN [3]: 0.17 mg/dL
- TOTAL PROTEIN [3]: 6.43 G/DL
- URIC ACID [3]: 2.1 mg/dL
- ABSOLUTE BASOPHIL [4]: 0 CELLS/uL
- ABSOLUTE EOSINOPHIL [4]: 63 CELLS/uL
- ABSOLUTE LYMPHOCYTE [4]: 13558.67 CELLS/uL
- ABSOLUTE MONOCYTE [4]: 820 CELLS/uL
- ABSOLUTE SEGMENTED NEUTROPHIL [4]: 3591.67 CELLS/uL
- BASOPHIL [4]: 0%
- EOSINOPHIL [4]: 0.33%
- ERYTHROCYTE COUNT [4]: 5.88 x10E6/uL
- HEMATOCRIT [4]: 37.4%
- HEMOGLOBIN [4]: 14 G/DL
- LEUKOCYTE COUNT [4]: 18.03 x10E3/uL
- LYMPHOCYTE [4]: 75.33%
- MEAN CORPUSCULAR HEMOGLOBIN [4]: 23.8 pg
- MEAN CORPUSCULAR HEMOGLOBIN CONCENTRATION [4]: 37.47 G/DL
- MEAN CORPUSCULAR VOLUME [4]: 63.57 fL
- MONOCYTE [4]: 4.67%
- NEUTROPHIL [4]: 19.67%
- NUCLEATED RED BLOOD CELLS [4]: 0 /100WBC
- PLATELET COUNT [4]: 1367 x10E3/uL
- ALANINE AMINOTRANSFERASE [4]: 57.67 u/L
- ALBUMIN [4]: 4 G/DL
- ALKALINE PHOSPHATASE [4]: 325.67 u/L
- ASPARTATE AMINOTRANSFERASE [4]: 70.67 u/L
- BLOOD UREA NITROGEN [4]: 19 mg/dL
- CARBON DIOXIDE [4]: 23.67 mmol/L
- CHLORIDE [4]: 104.67 MEQ/L
- CHOLESTEROL [4]: 86.33 mg/dL
- CREATINE PHOSPHOKINASE [4]: 235.67 u/L
- CREATININE [4]: 0.3 mg/dL
- GLUCOSE [4]: 163.33 mg/dL
- LACTATE DEHYDROGENASE [4]: 138.67 u/L
- LIPASE [4]: 10 u/L
- PHOSPHORUS [4]: 12.13 mg/dL
- POTASSIUM [4]: 6.32 MEQ/L
- SODIUM [4]: 145.77 MEQ/L
- TOTAL BILIRUBIN [4]: 0.13 mg/dL
- TOTAL PROTEIN [4]: 6.3 G/DL
- URIC ACID [4]: 1.7 mg/dL
